# According to patent US5672358A (priority 1995, dated 1997):
# Entries after “also recorded” stand apart in the source; their conditions may differ.
# Assay: pH dependent solubility of drug or wax
structure (smiles),measurement,value
COc1cc(Cc2cnc(N)nc2N)cc(OC)c1OC [trimethoprim],solubility,more soluble at acidic pH values; also recorded: the solubility of the two drugs is pH dependent
